Results from EP4706646A1, “NOVEL DOUBLE-STRANDED SIRNA, CONJUGATE THEREOF, AND USE THEREOF” (priority 2023, dated 2024).
Where two headings read alike, the source gives them in different places.

Key:
[1] = test system: hepatitis B virus (HBV); assay: Anti-HBV activity in the PHH in vitro infection model (transfection or free uptake); assay type: cell-based, HBV serotype D; conditions: for EC50: PHH infected with HBV serotype D, supernatant Day 8
Description: Transfection and Drug Dosing: On Day 0, revived PHH were adjusted to an appropriate density (6.67E+05 cells/ml) and seeded into 48-well cell culture plates at 1.32E+05 cells per well. On Day 1, HBV serotype D was added to infect PHH (800 GE/cell). On Day 2, fresh medium was replaced. On Day 4, the cell culture medium was discarded, and the test compound was serially diluted to the required concentration, which were then introduced into the cells via transfection using Lipofectamine™ RNAiMAX. The starting concentration of the test compound was 500 pM, and 5-fold dilutions were performed. Seven concentrations were set up in duplicate, with wells containing only the transfection reagent as the medium control. Four to five hours after transfection, fresh medium without compound was replaced. The final DMSO concentration in the medium was 2%. On Day 6, fresh medium without compound was replaced. On Day 8, cell supernatants were harvested, and cell viability was assessed using CCK-8 assay.
Drug Administration via Ad libitum uptake : On day 0, the test compound was diluted to the desired concentration in enzyme-free water, starting at 500 nM. Five-fold dilutions were performed, each with seven concentrations, in duplicate, with 22 µl added to each well of the cell culture plate. Thawed frozen PHHs were plated to an appropriate density (6.67E+05 cells/ml), with 1.32E+05 cells per well. The cells were then plated and allowed to ad libitum uptake of the test compound. On day 1, the medium was changed, and the PHHs were infected with HBV serotype D (800 GE/cell). On day 2, fresh medium was replaced without virus or test compound. The final DMSO concentration in the medium was 2%. On Day 4 and 6, fresh medium without test compound was replaced. On Day 8, cell supernatants were harvested, and cell viability was assessed using CCK-8 assay.
Sample testing: qPCR was used to detect the HBV DNA content in the cell culture supernatant; ELISA was used to detect the HBsAg and HBeAg content in the cell culture supernatant. The experimental results of the double-stranded siRNA conjugate of the present invention reducing the levels of HBsAg, HBeAg and DNA in cells are shown in Table 3. Table 3: Experimental results of the double-stranded siRNA conjugates of the present invention in reducing the levels of HBsAg, HBeAg and DNA in cells

[2] = test system: Hepatitis B virus; assay: HBV-Tg transgenic mouse experiment, serum HBsAg and HBeAg; assay type: in vivo, HBV-Tg transgenic mice, C57B/6N-Tg(1.28HBV)/Vst; conditions: 3 mg/kg, single subcutaneous dose
Text: Experimental Animals: HBV-Tg transgenic mice, C57B/6N-Tg(1.28HBV)/Vst, SPF-grade males, 6-8 weeks old, weighing 16-20 g, were purchased from Beijing Vitalstar Biotechnology Co.,Ltd., Animal Production Certificate No.: SCXK(Beijing)2019-0002. Animals were housed individually in individual cages by Beijing Vitalstar Biotechnology Co.,Ltd.
Animal Grouping: Based on the quantitative results of serum HBsAg (primary) and HBeAg (secondary), animals were stratified and randomly divided into groups, with 5 animals per group.
(§1) Test Sample Preparation and Administration: The required dosage of drug powder was calculated based on the purity of each test sample. At a dosing concentration of 0.6 mg/mL, the corresponding saline solution was added and mixed by vortexing until a colorless, transparent liquid was obtained. The day of the first administration was defined as Day 0. All groups received a single subcutaneous dose of 5 mL/kg on Day 0. If blood sampling was required on the day of dosing, it was performed after blood collection.
Main Outcome Measures: Animals were weighed and blood was collected once on Days 3, 7, 14, 21, 28 and 35. Serum was separated for HBsAg and HBeAg level determination.
(§2) Serum HBsAg and HBeAg Level Determination: After blood collection, serum was separated, diluted with PBS, and submitted for analysis. From each sample, 10 µL of serum was removed and diluted to 500 µL (50-fold dilution) with PBS. Serum HBsAg and HBeAg levels were measured using a Hepatitis B e Antigen Assay Kit (Mike Biotech) and a Hepatitis B Surface Antigen Assay Kit (Mike Biotech), respectively.

[3] = test system: Hepatitis B virus; assay: Hepatitis B virus AAV mouse experiment, serum HBsAg and HBeAg; assay type: in vivo, rAAV8-1.3HBV/C57BL/6 Mouse; conditions: 3 mg/kg, single subcutaneous dose
Text: Preparation and Grouping of rAAV8-1.3HBV/C57BL/6 Mouse Model: A persistent HBV infection mouse model was established by tail vein injection of rAAV8-1.3HBV (strain C) into C57 mice. The AAV virus injection dose was 1E+11 vg/mouse. Six weeks after injection, blood samples were collected for analysis of serum HBeAg, HBsAg and ALT levels. Based on the quantitative results of serum HBsAg (primary) and HBeAg (secondary), 35 mice were randomly divided into stratified groups, with 5 mice per group.
as §1, with “collection. Main Outcome Measures: Mice were weighed and blood was collected once on Days 3, 7, 14, 21 and 28. Serum was separated for HBsAg and HBeAg level determination.” for “collection.”
as §2, with “Kit” for “Kit (Mike Biotech)”, “Kit,” for “Kit (Mike Biotech),”

[4] = No transfection (ad libitum uptake, Day 0), ELISA, read-out: Experimental results EC50 HBeAg
[5] = No transfection (ad libitum uptake, Day 0), ELISA, read-out: Experimental results EC50 HBsAg
[6] = No transfection (ad libitum uptake, Day 0), qPCR, read-out: Experimental results EC50 DNA
[7] = compared with vehicle control group

With “S146: double-stranded siRNA conjugate; sense strand-conjugation group SEQ ID NO 21, antisense SEQ ID NO 27 u•G•ugaAYCGaaguGcAcac•u•u (sense GUGUGCACUUCGCUUCYCA; antisense UGUGAAYCGAAGUGCACACUU; conjugation group on sense strand, modifications, key not given here; listed as Albies alba)” as the substance, how does the EC50 [1, 4] read?
The EC50 was 2.24 nM.

And the EC50 [1, 5]?
Its EC50 is 0.782 nM.

What about the EC50 [1, 6] of the same substance?
The EC50 was 0.737 nM.

And the EC50 ([1]; Transfection (RNAiMAX, Day 4), ELISA, read-out: Experimental results EC50 HBeAg)?
The EC50 was 0.209 nM.

What about the EC50 ([1]; Transfection (RNAiMAX, Day 4), ELISA, read-out: Experimental results EC50 HBsAg) of the same substance?
The EC50 was 0.05 nM.

What about the EC50 ([1]; Transfection (RNAiMAX, Day 4), qPCR, read-out: Experimental results EC50 DNA) of the same substance?
Its EC50 is 0.082 nM.

And the “inhibitory activity against HBsAg, HBeAg and DNA” value ([1]; statement in words on Table 3)?
The value was “good inhibitory activity”.

What about the “inhibitory activity against HBsAg, HBeAg and DNA compared with control S148” value ([1]; without transfection) of the same substance?
Its value is “significantly better than that of the control S148”.

What about the “inhibitory activity on HBsAg compared with control DAW30025 (S149)” value ([2]; Figure 1) of the same substance?
Its value is “significantly superior to that of the control group”.

What about the “inhibitory effect on reducing HBeAg” value [2, 7] of the same substance?
The value was “a certain inhibitory effect”.

And the “inhibitory effects on HBsAg” value ([2]; compared with vehicle control group, Figure 1)?
Its value is “significant inhibitory effects”.

For “S147: double-stranded siRNA conjugate; sense strand-conjugation group SEQ ID NO 41, antisense SEQ ID NO 27 u•G•ugaAYCGaaguGcAcac•u•u (sense GUGUGCACUUCGCUUYACA; antisense UGUGAAYCGAAGUGCACACUU; conjugation group on sense strand, modifications, key not given here; listed as Albies alba)”, which “inhibitory activity against HBsAg compared with controls DAW30025 (S149) and DAW30336 (S151)” value ([3]; Figure 2) is on record?
Its value is “significantly better than that of the controls”.

And the “inhibitory effect on reducing HBeAg” value [3, 7]?
The value was “a certain inhibitory effect”.

What about the “inhibitory effects on HBsAg” value ([3]; compared with vehicle control group, Figure 2) of the same substance?
The value was “significant inhibitory effects”.

“S148: control double-stranded siRNA conjugate; sense strand-conjugation group SEQ ID NO 42, antisense SEQ ID NO 33 (sense GUGUGCACUUCGCUUCACA; antisense TGTGAAGCGAAGTGCACACTT; conjugation group on sense strand, position not given here; listed as Albies alba) [reference compound]” was tested. Which EC50 [1, 4] did it give?
The EC50 was 7.42 nM.

And the EC50 [1, 5]?
Its EC50 is 2.9 nM.

What about the EC50 [1, 6] of the same substance?
Its EC50 is 5.72 nM.
